The test deals with T1, CysI (Pseudomonas aeruginosa, UniProt Q9I2Q7).
T1 construct: full orf with N-terminal hexahistidine tag (pSKcysI-N), E. coli BL21 (DE3) suf++ with pCDF-cysG; IMAC and SEC
T1 sequence (Q9I2Q7 1-552): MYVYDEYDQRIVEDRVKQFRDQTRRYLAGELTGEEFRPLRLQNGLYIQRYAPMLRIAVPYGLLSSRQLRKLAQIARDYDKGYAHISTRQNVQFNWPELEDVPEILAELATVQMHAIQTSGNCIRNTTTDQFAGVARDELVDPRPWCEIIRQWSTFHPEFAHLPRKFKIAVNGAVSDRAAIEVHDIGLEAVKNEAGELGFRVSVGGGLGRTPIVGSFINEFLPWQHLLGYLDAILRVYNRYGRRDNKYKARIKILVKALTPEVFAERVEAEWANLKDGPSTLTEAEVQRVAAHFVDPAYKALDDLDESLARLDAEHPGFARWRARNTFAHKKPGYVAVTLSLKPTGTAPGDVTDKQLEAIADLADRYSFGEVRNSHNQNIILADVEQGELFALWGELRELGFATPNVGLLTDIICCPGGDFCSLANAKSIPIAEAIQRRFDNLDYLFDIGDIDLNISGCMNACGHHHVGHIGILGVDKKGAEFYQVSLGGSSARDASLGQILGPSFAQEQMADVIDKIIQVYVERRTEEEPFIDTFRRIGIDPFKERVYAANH
Description: methyl viologen oxidation at […] nm. Format: biochemical. The conditions noted are these: anaerobic; methyl viologen as electron donor.

From publication PMC12688703, “NirA is a Cyanide‐Tolerant Nitrite Reductase Which Protects Pseudomonas aeruginosa From Self‐Poisoning” (Environmental Microbiology Reports, 2025) come the findings set out here.

With `O=S(O)O` [hydrogen sulphite], the “methyl viologen oxidation at 605 nm” value is “Potassium nitrite and hydrogen sulphite were used as electron acceptors for NirA and CysI”.
